From patent US7214707B2, “Dimeric compounds and their use as anti-viral agents” (Biota Scientific Management Pty Ltd., priority 2001, dated 2007) come the findings set out here.

For one data set, the system named is B/Hong Kong/5/72 BVLV012. Description: Plaque reduction assay (PRA) in MDCK cells. The conditions noted are these: read-out: EC50 PRA B/HongK. Type of data set: cell-based, influenza virus.
The test system of data set [1] is A/Panama/2007/99 BVLV008 (H3N2). Description: Plaque reduction assay (PRA) in MDCK cells. Format: cell-based. The conditions noted are these: Influenza A virus, read-out: EC50 PRA A/Pan.
In data set [2] the test system is A/New Caledonia/20/99 BVLV008 (H1N1). Description: Plaque reduction assay (PRA) in MDCK cells. Type of data set: cell-based. The conditions noted are these: Influenza A virus, read-out: EC50 PRA A/New.
Data set [3] has as its system A/Victoria/3/75 BVLV017 (H3N2). Description: Plaque reduction assay (PRA) in MDCK cells. Type of data set: cell-based. To be noted: Influenza A virus, read-out: EC50 PRA A/Vic.
In data set [4] the test system is A/Sydney/5/97 BVLV015 (H3N2). Description: Plaque reduction assay (PRA) in MDCK cells. Format: cell-based. The conditions noted are these: Influenza A virus, read-out: EC50 PRA A/Syd.
The test system of data set [5] is A/Bayem/7/95 BVL006 (H1N1). Description: Plaque reduction assay (PRA) in MDCK cells. Type of data set: cell-based. To be noted: Influenza A virus, read-out: EC50 PRA A/Bay.
Data set [6] can be described thus: Rat lung retention after intra-tracheal dosing (long duration of action). The conditions noted are these: in vivo. As for the experimental part:
Rodents are anaesthetised and dosed with compound of interest by the intra-tracheal route at a dose volume of 0.8 ml/kg. The rodent is then held in the vertical position until full recovery is achieved. […] Any analytical method suitable for detection of this type of compound may be used. The time at which levels of compound fall below the sensitivity of the analytical techniques identified will determine the residency time of the compound in lung tissue.
Please note that all experiments included a co-dosed internal standard, namely compound 3 of International Patent Publication No. WO 02/20514, to permit comparison. The data are expressed as a ratio with respect to this compound, the structure of which is shown below.
The data for compound A is included for comparison purposes.

The test system of a further data set is B/Harbin/7/95 BVLV008. Put plainly: Plaque reduction assay (PRA) in MDCK cells. Type of data set: cell-based, influenza virus. To be noted: read-out: EC50 PRA B/Harb.
Another data set has as its system A/WSN/33 BVLV09 (H1N1). Description: Plaque reduction assay (PRA) in MDCK cells. Type of data set: cell-based. The conditions noted are these: Influenza A virus, read-out: EC50 PRA A/WSN.
A further data set deals with Influenza A/Sydney/5/97. Description: Cytopathic effect (CPE) assay in MDCK cells, MTT readout. Type of data set: cell-based, influenza virus. The conditions noted are these: concentration inhibiting CPE by 50%, up to 72 hours.
The next data set deals with Influenza B/Harbin/7/95. The data set is described as above. The conditions noted are these: concentration inhibiting CPE by 50%, up to 72 hours. Type of data set: cell-based, influenza virus.
Data set [7] relates to B/Yamanashi/166/98 BVLV007. Put plainly: Plaque reduction assay (PRA) in MDCK cells. Format: cell-based. The conditions noted are these: influenza B virus, read-out: EC50 PRA B/Yam, reduces plaque numbers by 50%, MDCK cells.
The mark [8] stands for this setting: reduces plaque numbers by 50%, MDCK cells.

SMILES strings stand for the structures. Values after ≈ are worked out from the molar mass of the structure shown. Counter-ions that a name gives are not always drawn. Like-named read-outs stand apart in the source and are kept apart here.

Regarding `NC12CC3CC(CC(C3)C1)C2` [Amantadine], the EC50 in the data set on B/Hong Kong/5/72 BVLV012 is above 10000 ng/mL; in data set [1] (setting [8]), 157 ng/mL (≈ 1040 nM); in data set [2] (setting [8]), 11 ng/mL (≈ 72.7 nM); in data set [3] (setting [8]) it was 220 ng/mL (≈ 1450 nM).

In the case of `CC(=O)N[C@H]1[C@H]([C@H](O)[C@H](O)CO)OC(C(=O)O)=C[C@@H]1N=C(N)N` [Compound A, 4-guanidino-2-deoxy-2,3-dehydro-N-acetylneuraminic acid, reference compound], the EC50 in the data set on B/Hong Kong/5/72 BVLV012 was 21 ng/mL (≈ 63.2 nM); in [1] it was 2.7 ng/mL (≈ 8.12 nM); in data set [4] it was 2.4 ng/mL (≈ 7.22 nM); in data set [2], 0.27 ng/mL (≈ 0.812 nM); in [3], 5.5 ng/mL (≈ 16.6 nM); in data set [5] (H1N1, MDCK) it was 35 ng/mL (≈ 105 nM). The values for the EC50 with B/Harbin/7/95 BVLV008 and in the data set with A/WSN/33 BVLV09 (H1N1) were 0.19 ng/mL (≈ 0.572 nM) and 56 ng/mL (≈ 169 nM), respectively. In addition, the “Ratio Mean (lung) (cmpd)/PCT AU01/01128 compound 3” value (from here on “Ratio Mean (lung)”) is given as 0.26 in [6] (0.1 mg/kg, 48 h) and 0.08 in [6] (0.1 mg/kg, 168 h).

Take `CC(=O)N[C@H]1[C@H]([C@H](OC(=O)NCCc2cccc(CCNC(=O)O[C@@H]([C@@H]3OC(C(=O)O)=C[C@H](NC(=N)N)[C@H]3NC(C)=O)[C@H](O)CO)c2)[C@H](O)CO)OC(C(=O)O)=C[C@@H]1NC(=N)N` [Example 1, (2R,3R,4S)-3-(acetylamino)-2-{(1R,2R)-1-[({[2-(3-{2-[({[(1R,2R)-1-((2R,3R,4S)-3-(acetylamino)-4-{[amino(imino)methyl]amino}-6-carboxy-3,4-dihydro-2H-pyran-2-yl)-2,3-dihydroxypropyl]oxy}carbonyl)amino]ethyl}phenyl)ethyl]amino}carbonyl)oxy]-2,3-dihydroxypropyl}-4-{[amino(imino)methyl]amino}-3,4-dihydro-2H-pyran-6-carboxylic Acid]: in the data set with Influenza A/Sydney/5/97, the “ID50 A/Sydney/5/97” value was found to be 84 ng/mL (≈ 95.4 nM). In addition, in the data set on Influenza B/Harbin/7/95, the “ID50 B/Harbin/7/95” value was 0.2 ng/mL (≈ 0.227 nM).

Consider `CC(=O)N[C@H]1[C@H]([C@H](OC(=O)NCCc2ccc(CCNC(=O)O[C@@H]([C@@H]3OC(C(=O)O)=C[C@H](NC(=N)N)[C@H]3NC(C)=O)[C@H](O)CO)cc2)[C@H](O)CO)OC(C(=O)O)=C[C@@H]1NC(=N)N` [Example 2, (2R,3R,4S)-3-(acetylamino)-2-{(1R,2R)-1-[({[2-(4-{2-[({[(1R,2R)-1-((2R,3R,4S)-3-(acetylamino)-4-{[amino(imino)methyl]amino}-6-carboxy-3,4-dihydro-2H-pyran-2-yl)-2,3-dihydroxypropyl]oxy}carbonyl)amino]ethyl}phenyl)ethyl]amino}carbonyl)oxy]-2,3-dihydroxypropyl}-4-{[amino(imino)methyl]amino}-3,4-dihydro-2H-pyran-6-carboxylic Acid], for which the “Ratio Mean (lung)” value was determined as 0.44 in [6] (0.1 mg/kg, 48 h) and 0.34 in data set [6] (0.1 mg/kg, 168 h). For the same compound, the concentration at 48 h in [6] (0.1 mg/kg, (cmpd) ng/g) amounted to 740 ng/g; in data set [6] (0.1 mg/kg, Mean (cmpd) ng/g) it was 603 ng/g. The concentration at 168 h in [6] (0.1 mg/kg, Mean (cmpd) ng/g) is 259 ng/g.

On to `CC(=O)N[C@H]1[C@H]([C@H](OC(=O)NCc2ccc(S(=O)(=O)c3ccc(CNC(=O)O[C@@H]([C@@H]4OC(C(=O)O)=C[C@H](NC(=N)N)[C@H]4NC(C)=O)[C@H](O)CO)cc3)cc2)[C@H](O)CO)OC(C(=O)O)=C[C@@H]1NC(=N)N` [Example 4, (2R,3R,4S)-3-(acetylamino)-2-[(1R,2R)-1-({[({4-[(4-{[({[(1R,2R)-1((2R,3R,4S)-3-(acetylamino)-4-{[amino(imino)methyl]amino}-6-carboxy-3,4-dihydro-2H-pyran-2-yl)-2,3-dihydroxypropyl]oxy}-carbonyl)amino]methyl}phenyl)sulfonyl]phenyl}methyl)amino]carbonyl}oxy)-2,3-dihydroxypropyl]-4-{[amino(imino)methyl]amino}-3,4-dihydro-2H-pyran-6-carboxylic Acid], for which the “ID50 A/Sydney/5/97” value with Influenza A/Sydney/5/97 was above 100 ng/mL. Moreover, the “ID50 B/Harbin/7/95” value in the data set with Influenza B/Harbin/7/95 was below 0.05 ng/mL.

Regarding `CC(=O)N[C@H]1[C@H]([C@H](OC(=O)Nc2ccc(Cc3ccc(NC(=O)O[C@@H]([C@@H]4OC(C(=O)O)=C[C@H](NC(=N)N)[C@H]4NC(C)=O)[C@H](O)CO)cc3)cc2)[C@H](O)CO)OC(C(=O)O)=C[C@@H]1NC(=N)N` [Example 8, (2R,3R,4S)-3-(acetylamino)-2-{(1R,2R)-1-[({[4-({4-[({[(1R,2R)-1-((2R,3R,4S)-3-(acetylamino)-4-{[amino(imino)methyl]amino}-6-carboxy-3,4-dihydro-2H-pyran-2-yl)-2,3-dihydroxypropyl]oxy}carbonyl)amino]phenyl}methyl)phenyl]amino}carbonyl)oxy]-2,3-dihydroxypropyl}-4-{[amino(imino)methyl]amino}-3,4-dihydro-2H-pyran-6-carboxylic Acid bis TFA Salt], the “ID50 A/Sydney/5/97” value in the data set on Influenza A/Sydney/5/97 is 13 ng/mL. Further, the EC50 was 0.0001 ng/mL in data set [2] (setting [8]), 0.003 ng/mL in [3] (setting [8]), 0.02 ng/mL in data set [7] and below 0.0001 ng/mL in the data set on B/Harbin/7/95 BVLV008. In addition, the “Ratio Mean (lung)” value in data set [6] (0.4 mg/kg, 48 h) came to 1.05; in [6] (0.4 mg/kg, 168 h), 2.28. In addition, in data set [6] (0.4 mg/kg, 168 h), the “(lung)” value came to 3571 ng/g. Moreover, the concentration at 48 h is 3800 ng/g in data set [6] (0.4 mg/kg, (lung) ng/g) and 3250 ng/g in data set [6] (0.4 mg/kg, Mean (lung) ng/g). Also, the concentration at 168 h in data set [6] (0.4 mg/kg, (lung) ng/g) was 3230 ng/g; in data set [6] (0.4 mg/kg, Mean (lung) ng/g), 3400 ng/g. Moreover, the “ID50 B/Harbin/7/95” value in the data set on Influenza B/Harbin/7/95 is below 0.05 ng/mL.

Regarding `CC(=O)N[C@H]1[C@H]([C@H](OC(=O)NCc2ccc(-c3ccc(CNC(=O)O[C@@H]([C@@H]4OC(C(=O)O)=C[C@H](NC(=N)N)[C@H]4NC(C)=O)[C@H](O)CO)cc3)cc2)[C@H](O)CO)OC(C(=O)O)=C[C@@H]1NC(=N)N` [Example 9, (2R,3R,4S)-3-(acetylamino)-2-{(1R,2R)-1-[({[(4′-{[({[(1R,2R)-1-((2R,3R,4S)-3-(acetylamino)-4-{[amino(imino)methyl]amino}-6-carboxy-3,4-dihydro-2H-pyran-2-yl)-2,3-dihydroxypropyl]oxy}carbonyl)amino]methyl}-1,1′-biphenyl-4-yl)methyl]amino}carbonyl)oxy]-2,3-dihydroxypropyl}-4-{[amino(imino)methyl]amino}-3,4-dihydro-2H-pyran-6-carboxylic Acid bis TFA Salt], the EC50 in the data set on B/Hong Kong/5/72 BVLV012 is 0.23 ng/mL; in [4] (setting [8]), 3.7 ng/mL; in data set [2] (setting [8]), 0.003 ng/mL; in [5] (H1N1, reduces plaque numbers by 50%, MDCK cells), above 1 ng/mL; in data set [7] it was 0.006 ng/mL. Moreover, in the data set with Influenza A/Sydney/5/97, the “ID50 A/Sydney/5/97” value is above 100 ng/mL. The “Ratio Mean (lung)” value in [6] (0.1 mg/kg, 48 h) is 0.52; in [6] (0.1 mg/kg, 168 h), 0.45. Moreover, the concentration at 48 h in data set [6] (0.1 mg/kg, Mean (cmpd) ng/g) turned out to be 1400 ng/g. The concentration at 168 h in data set [6] (0.1 mg/kg, Mean (cmpd) ng/g) was determined as 835 ng/g. For the same compound, in the data set with Influenza B/Harbin/7/95, the “ID50 B/Harbin/7/95” value came to 0.08 ng/mL.

As for `CCOC(=O)C1=C[C@@H](OC(CC)CC)[C@H](NC(C)=O)[C@@H](N)C1` [Oseltamivir], the EC50 in the data set with B/Hong Kong/5/72 BVLV012 was 32 ng/mL (≈ 102 nM); in data set [1] (setting [8]) it was 0.3 ng/mL (≈ 0.96 nM); in data set [2] (setting [8]), 0.23 ng/mL (≈ 0.736 nM); in [3] (setting [8]) it was 0.11 ng/mL (≈ 0.352 nM); in data set [7], 0.7 ng/mL (≈ 2.24 nM).
